Laboratory results published in the NIST ThermoML archive (doi:10.1016/j.jct.2017.10.002).
Several values for one entry are separate records, joined by “and”; a condition that tells them apart may be missing. Equal entries are not always repeated.

Assay: molar heat capacity at constant pressure
Conditions: 101.33 kPa, relaxation calorimetry

CCc1ncc[n-]1.CCc1ncc[n-]1.[Zn+2] [zinc(II) 2-ethylimidazolide]
molar heat capacity at constant pressure
Conditions | Crystal | Glass
20.19 K | 17.81 J/K/mol | –
20.5 K | 16.98 J/K/mol and 13.71 J/K/mol | –
20.51 K | – | 17.11 J/K/mol
22.14 K | 20.77 J/K/mol | –
22.42 K | 16.31 J/K/mol | –
22.43 K | 19.56 J/K/mol | 19.76 J/K/mol
24.21 K | 23.64 J/K/mol | –
24.49 K | 22.58 J/K/mol and 19.45 J/K/mol | –
24.5 K | – | 22.96 J/K/mol
25 K | 24.79 J/K/mol and 20.1 J/K/mol and 23.3 J/K/mol | 23.65 J/K/mol
26.43 K | 26.91 J/K/mol | –
26.75 K | 22.61 J/K/mol | –
26.76 K | 25.8 J/K/mol | –
26.77 K | – | 26.23 J/K/mol
28.91 K | 30.23 J/K/mol | –
29.23 K | 26.38 J/K/mol | –
29.24 K | 29.64 J/K/mol | –
29.25 K | – | 30.22 J/K/mol
30 K | 31.85 J/K/mol and 27.7 J/K/mol and 30.79 J/K/mol | 31.35 J/K/mol
31.62 K | 34.05 J/K/mol | –
31.94 K | 30.76 J/K/mol | 34.68 J/K/mol
31.95 K | 33.91 J/K/mol | –
34.58 K | 38.37 J/K/mol | –
34.9 K | 38.58 J/K/mol and 35.55 J/K/mol | 39.27 J/K/mol
35 K | 38.9 J/K/mol and 35.64 J/K/mol and 38.68 J/K/mol | 39.25 J/K/mol
37.81 K | 43 J/K/mol | –
38.12 K | 40.86 J/K/mol | –
38.13 K | 43.67 J/K/mol | 43.79 J/K/mol
40 K | 45.99 J/K/mol and 43.91 J/K/mol and 46.78 J/K/mol | 46.98 J/K/mol
41.34 K | 47.77 J/K/mol | –
41.65 K | 46.75 J/K/mol | –
41.66 K | 49.38 J/K/mol | 49.23 J/K/mol
45 K | 53.17 J/K/mol and 52.4 J/K/mol and 54.79 J/K/mol | 54.36 J/K/mol
45.2 K | 53.79 J/K/mol | –
45.5 K | 53.14 J/K/mol | –
45.51 K | 55.55 J/K/mol | –
45.52 K | – | 55.25 J/K/mol
49.41 K | 59.46 J/K/mol | –
49.71 K | 60.01 J/K/mol | –
49.72 K | 62.24 J/K/mol | –
49.73 K | – | 61.57 J/K/mol
50 K | 60.35 J/K/mol and 60.38 J/K/mol and 62.49 J/K/mol | 61.68 J/K/mol
54.02 K | 65.55 J/K/mol | –
54.31 K | 67.15 J/K/mol | –
54.32 K | – | 68.04 J/K/mol
54.33 K | 68.86 J/K/mol | –
59.06 K | 72.12 J/K/mol | –
59.34 K | 74.94 J/K/mol | –
59.35 K | 76.53 J/K/mol | 75.28 J/K/mol
60 K | 73.51 J/K/mol and 75.98 J/K/mol and 77.48 J/K/mol | 76.22 J/K/mol
64.56 K | 79.28 J/K/mol | –
64.85 K | 83.06 J/K/mol | 82.76 J/K/mol
64.86 K | 84.44 J/K/mol | –
70 K | 86.38 J/K/mol and 90.67 J/K/mol and 92.04 J/K/mol | 89.94 J/K/mol
70.56 K | 86.79 J/K/mol | –
70.85 K | 91.72 J/K/mol | –
70.86 K | 93.1 J/K/mol | 90.79 J/K/mol
77.13 K | 95.12 J/K/mol | –
77.42 K | 100.73 J/K/mol | 99.43 J/K/mol
77.43 K | 102.26 J/K/mol | –
80 K | 98.35 J/K/mol and 103.93 J/K/mol and 105.47 J/K/mol | 102.42 J/K/mol
84.27 K | 104 J/K/mol | –
84.6 K | 109.85 J/K/mol | –
84.61 K | 111.93 J/K/mol | 108.29 J/K/mol
90 K | 109.29 J/K/mol and 115.76 J/K/mol and 117.61 J/K/mol | 113.66 J/K/mol
92.13 K | 112.13 J/K/mol | –
92.46 K | 118.78 J/K/mol | 116.45 J/K/mol
92.47 K | 120.62 J/K/mol | –
100 K | 119.26 J/K/mol and 126.37 J/K/mol and 128.56 J/K/mol | 123.8 J/K/mol
100.71 K | 118.91 J/K/mol | –
101.03 K | 127.27 J/K/mol | –
101.04 K | 129.19 J/K/mol | 124.6 J/K/mol
110 K | 128.39 J/K/mol and 136.02 J/K/mol and 138.51 J/K/mol | 133.08 J/K/mol
110.81 K | 128.62 J/K/mol | –
111.15 K | 136.95 J/K/mol | 133.87 J/K/mol
111.16 K | 139.25 J/K/mol | –
120 K | 136.82 J/K/mol and 144.91 J/K/mol and 147.68 J/K/mol | 141.69 J/K/mol
120.85 K | 137.96 J/K/mol | –
121.21 K | 146.05 J/K/mol | 142.99 J/K/mol
121.23 K | 149.18 J/K/mol | –
130 K | 144.69 J/K/mol and 153.25 J/K/mol and 156.24 J/K/mol | 149.79 J/K/mol
130.99 K | 145.58 J/K/mol | –
131.26 K | – | 150.5 J/K/mol
131.27 K | 153.88 J/K/mol | –
131.28 K | 157.12 J/K/mol | –
140 K | 152.15 J/K/mol and 161.18 J/K/mol and 164.35 J/K/mol | 157.54 J/K/mol
141.06 K | 152.68 J/K/mol | –
141.38 K | – | 158.36 J/K/mol
141.4 K | 162.12 J/K/mol | –
141.42 K | 164.9 J/K/mol | –
150 K | 159.28 J/K/mol and 168.81 J/K/mol and 172.14 J/K/mol | 165.02 J/K/mol
151.12 K | 159.89 J/K/mol | –
151.43 K | – | 166.3 J/K/mol
151.46 K | 170.21 J/K/mol | –
151.47 K | 173.16 J/K/mol | –
160 K | 166.18 J/K/mol and 176.23 J/K/mol and 179.71 J/K/mol | 172.32 J/K/mol
161.25 K | 166.65 J/K/mol | –
161.56 K | – | 173.36 J/K/mol
161.59 K | 177.25 J/K/mol | –
161.61 K | 180.61 J/K/mol | –
170 K | 172.92 J/K/mol and 183.53 J/K/mol and 187.14 J/K/mol | 179.51 J/K/mol
171.35 K | 173.33 J/K/mol | –
171.6 K | – | 180.21 J/K/mol
171.65 K | 184.06 J/K/mol | –
171.67 K | 188.03 J/K/mol | –
180 K | 179.56 J/K/mol and 190.75 J/K/mol and 194.49 J/K/mol | 186.63 J/K/mol
181.43 K | 180.52 J/K/mol | –
181.69 K | – | 187.69 J/K/mol
181.74 K | 192.24 J/K/mol | –
181.77 K | 196.44 J/K/mol | –
190 K | 186.14 J/K/mol and 197.94 J/K/mol and 201.82 J/K/mol | 193.72 J/K/mol
191.5 K | 187.51 J/K/mol | –
191.77 K | – | 195.38 J/K/mol
191.83 K | 199.47 J/K/mol | –
191.86 K | 203.36 J/K/mol | –
200 K | 192.7 J/K/mol and 205.14 J/K/mol and 209.16 J/K/mol | 200.81 J/K/mol
201.6 K | 194.57 J/K/mol | –
201.91 K | – | 202.56 J/K/mol
201.98 K | 207.07 J/K/mol | –
202.01 K | 211.73 J/K/mol | –
210 K | 199.27 J/K/mol and 212.36 J/K/mol and 216.56 J/K/mol | 207.92 J/K/mol
211.69 K | 200.92 J/K/mol | –
211.98 K | – | 209.72 J/K/mol
212.06 K | 214.46 J/K/mol | –
212.09 K | 218.97 J/K/mol | –
220 K | 205.88 J/K/mol and 219.65 J/K/mol and 224.03 J/K/mol | 215.06 J/K/mol
221.78 K | 207.56 J/K/mol | –
221.99 K | – | 216.74 J/K/mol
222.09 K | 221.43 J/K/mol | –
222.12 K | 225.68 J/K/mol | –
230 K | 212.55 J/K/mol and 227.01 J/K/mol and 231.6 J/K/mol | 222.25 J/K/mol
231.87 K | 213.47 J/K/mol | –
232.05 K | – | 223.82 J/K/mol
232.17 K | 228.3 J/K/mol | –
232.21 K | 233.03 J/K/mol | –
240 K | 219.29 J/K/mol and 234.46 J/K/mol and 239.29 J/K/mol | 229.49 J/K/mol
241.95 K | 220.69 J/K/mol | –
242.11 K | – | 230.23 J/K/mol
242.25 K | 235.6 J/K/mol | –
242.28 K | 240.2 J/K/mol | –
250 K | 226.12 J/K/mol and 242.01 J/K/mol and 247.11 J/K/mol | 236.79 J/K/mol
252.04 K | 227.71 J/K/mol | –
252.26 K | – | 238.21 J/K/mol
252.41 K | 243.81 J/K/mol | –
252.44 K | 248.76 J/K/mol | –
260 K | 233.06 J/K/mol and 249.68 J/K/mol and 255.08 J/K/mol | 244.16 J/K/mol
262.15 K | 234.66 J/K/mol | –
262.32 K | – | 245.55 J/K/mol
262.49 K | 251.06 J/K/mol | –
262.53 K | 256.2 J/K/mol | –
270 K | 240.1 J/K/mol and 257.46 J/K/mol and 263.21 J/K/mol | 251.6 J/K/mol
272.26 K | 239.9 J/K/mol | –
272.38 K | – | 253.18 J/K/mol
272.57 K | 259.14 J/K/mol | –
272.61 K | 264.93 J/K/mol | –
273.15 K | 242.35 J/K/mol and 259.94 J/K/mol and 265.8 J/K/mol | 253.96 J/K/mol
280 K | 247.27 J/K/mol and 265.38 J/K/mol and 271.5 J/K/mol | 259.1 J/K/mol
282.33 K | 249.22 J/K/mol | –
282.34 K | – | 261.68 J/K/mol
282.56 K | 268.2 J/K/mol | –
282.6 K | 274.43 J/K/mol | –
290 K | 254.56 J/K/mol and 273.43 J/K/mol and 279.96 J/K/mol | 266.68 J/K/mol
292.42 K | 254.66 J/K/mol | –
292.48 K | – | 268.78 J/K/mol
292.71 K | 275.78 J/K/mol | –
292.77 K | 282.45 J/K/mol | –
298.15 K | 260.6 J/K/mol and 280.09 J/K/mol and 287 J/K/mol | 272.9 J/K/mol
300 K | 261.99 J/K/mol and 281.62 J/K/mol and 288.61 J/K/mol | 274.31 J/K/mol
302.52 K | 265.92 J/K/mol | –
302.54 K | – | 275.95 J/K/mol
302.81 K | 283.82 J/K/mol | –
302.88 K | 291.43 J/K/mol | –
